Where two headings read alike, the source gives them in different places. Each block holds one compound with its values, some of them ahead of it.
Experiments:
[1] = tested on: KARN cells (Jurkat 2C4); assay: cells; conditions: Homo sapiens
[2] = biological target: human HDAC8 (Homo sapiens (Human), UniProt Q9BY41); assay: HDAC8 inhibition assay (modified FLUOR DE LYS, 384-well); assay type: biochemical; conditions: […] enzyme, 200 μM substrate BML-KI178, 3 h pre-incubation; read-out: HDAC8 IC50
human HDAC8, sequence (Q9BY41 whole entry): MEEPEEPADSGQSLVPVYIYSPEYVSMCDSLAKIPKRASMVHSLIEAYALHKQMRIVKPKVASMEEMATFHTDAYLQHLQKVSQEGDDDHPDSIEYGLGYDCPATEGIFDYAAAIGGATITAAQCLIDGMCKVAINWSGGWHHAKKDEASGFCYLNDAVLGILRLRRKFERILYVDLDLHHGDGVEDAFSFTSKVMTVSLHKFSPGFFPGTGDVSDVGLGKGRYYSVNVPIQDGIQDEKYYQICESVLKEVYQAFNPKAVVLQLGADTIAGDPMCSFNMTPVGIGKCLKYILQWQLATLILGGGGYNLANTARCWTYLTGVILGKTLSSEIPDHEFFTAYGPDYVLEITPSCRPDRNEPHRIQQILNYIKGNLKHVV

[3] = biological target: human HDAC1 (Homo sapiens (Human), UniProt Q13547)
human HDAC1, sequence (Q13547 whole entry): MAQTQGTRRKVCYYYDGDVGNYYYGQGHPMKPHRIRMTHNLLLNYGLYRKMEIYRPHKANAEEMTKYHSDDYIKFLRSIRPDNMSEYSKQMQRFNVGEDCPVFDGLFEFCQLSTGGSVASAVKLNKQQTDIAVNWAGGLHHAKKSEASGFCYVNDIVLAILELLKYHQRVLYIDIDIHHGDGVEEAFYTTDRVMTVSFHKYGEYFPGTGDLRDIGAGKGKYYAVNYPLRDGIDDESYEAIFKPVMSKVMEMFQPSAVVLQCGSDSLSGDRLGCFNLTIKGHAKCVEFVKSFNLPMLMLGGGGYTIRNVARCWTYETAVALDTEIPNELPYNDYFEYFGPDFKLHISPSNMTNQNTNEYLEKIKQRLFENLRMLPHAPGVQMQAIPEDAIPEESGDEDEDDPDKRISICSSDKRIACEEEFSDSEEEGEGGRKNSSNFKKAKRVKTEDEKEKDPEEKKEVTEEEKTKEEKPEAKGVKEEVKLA

[4] = biological target: HDAC6 (Homo sapiens (Human), UniProt Q9UBN7)
HDAC6, sequence (Q9UBN7 whole entry): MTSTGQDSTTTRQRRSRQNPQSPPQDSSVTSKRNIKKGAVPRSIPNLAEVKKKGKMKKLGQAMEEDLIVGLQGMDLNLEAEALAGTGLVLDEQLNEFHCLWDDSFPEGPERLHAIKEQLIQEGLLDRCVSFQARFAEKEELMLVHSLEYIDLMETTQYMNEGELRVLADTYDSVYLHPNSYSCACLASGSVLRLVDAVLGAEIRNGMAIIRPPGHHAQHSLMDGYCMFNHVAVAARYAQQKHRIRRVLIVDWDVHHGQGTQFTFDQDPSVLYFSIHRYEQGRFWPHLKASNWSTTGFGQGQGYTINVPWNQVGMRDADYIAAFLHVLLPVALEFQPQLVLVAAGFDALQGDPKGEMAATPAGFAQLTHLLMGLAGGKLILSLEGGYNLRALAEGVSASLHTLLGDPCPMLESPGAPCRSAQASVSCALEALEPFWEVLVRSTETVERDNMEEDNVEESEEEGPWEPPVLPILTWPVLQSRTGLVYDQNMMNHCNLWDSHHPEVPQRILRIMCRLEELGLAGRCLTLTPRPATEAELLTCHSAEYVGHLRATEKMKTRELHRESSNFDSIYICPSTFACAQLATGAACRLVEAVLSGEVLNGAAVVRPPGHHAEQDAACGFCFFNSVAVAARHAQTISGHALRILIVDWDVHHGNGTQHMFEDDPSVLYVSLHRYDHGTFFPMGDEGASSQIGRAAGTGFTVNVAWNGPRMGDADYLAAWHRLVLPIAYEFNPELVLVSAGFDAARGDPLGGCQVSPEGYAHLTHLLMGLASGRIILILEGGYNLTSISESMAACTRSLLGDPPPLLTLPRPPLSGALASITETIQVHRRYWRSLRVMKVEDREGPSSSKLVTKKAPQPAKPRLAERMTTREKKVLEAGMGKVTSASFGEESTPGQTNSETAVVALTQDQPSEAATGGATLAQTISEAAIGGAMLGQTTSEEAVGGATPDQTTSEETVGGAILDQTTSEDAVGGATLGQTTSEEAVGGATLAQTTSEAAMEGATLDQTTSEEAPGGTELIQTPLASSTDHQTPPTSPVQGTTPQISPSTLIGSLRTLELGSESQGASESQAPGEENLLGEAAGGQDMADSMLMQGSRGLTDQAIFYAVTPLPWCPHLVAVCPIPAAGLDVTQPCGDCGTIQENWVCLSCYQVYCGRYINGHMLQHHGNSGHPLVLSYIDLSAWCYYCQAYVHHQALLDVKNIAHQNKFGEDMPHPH

[5] = biological target: human HDAC2 (Homo sapiens (Human), UniProt Q92769); assay: HDAC2 inhibition assay (modified FLUOR DE LYS, 384-well); assay type: biochemical; conditions: […] enzyme, 40 μM substrate BML-KI104, 3 h pre-incubation; read-out: HDAC2 IC50
human HDAC2, sequence (Q92769 whole entry): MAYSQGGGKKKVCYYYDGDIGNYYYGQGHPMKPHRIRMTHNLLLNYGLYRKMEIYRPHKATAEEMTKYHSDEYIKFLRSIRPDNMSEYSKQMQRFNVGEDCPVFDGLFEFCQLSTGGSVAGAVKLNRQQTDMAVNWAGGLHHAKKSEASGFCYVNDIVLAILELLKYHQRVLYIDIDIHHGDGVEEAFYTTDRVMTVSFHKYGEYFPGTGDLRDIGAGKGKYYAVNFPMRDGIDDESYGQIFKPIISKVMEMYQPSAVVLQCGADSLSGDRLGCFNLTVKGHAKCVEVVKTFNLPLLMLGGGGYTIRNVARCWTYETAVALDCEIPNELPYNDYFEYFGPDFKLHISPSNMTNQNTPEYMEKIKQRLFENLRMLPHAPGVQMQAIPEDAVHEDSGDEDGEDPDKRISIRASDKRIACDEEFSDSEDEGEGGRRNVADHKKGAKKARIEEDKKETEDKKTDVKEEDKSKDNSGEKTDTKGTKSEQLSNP

[6] = biological target: human HDAC3/SMRT heterodimer (Homo sapiens (Human), UniProt O15379)
human HDAC3/SMRT heterodimer, sequence (O15379 whole entry): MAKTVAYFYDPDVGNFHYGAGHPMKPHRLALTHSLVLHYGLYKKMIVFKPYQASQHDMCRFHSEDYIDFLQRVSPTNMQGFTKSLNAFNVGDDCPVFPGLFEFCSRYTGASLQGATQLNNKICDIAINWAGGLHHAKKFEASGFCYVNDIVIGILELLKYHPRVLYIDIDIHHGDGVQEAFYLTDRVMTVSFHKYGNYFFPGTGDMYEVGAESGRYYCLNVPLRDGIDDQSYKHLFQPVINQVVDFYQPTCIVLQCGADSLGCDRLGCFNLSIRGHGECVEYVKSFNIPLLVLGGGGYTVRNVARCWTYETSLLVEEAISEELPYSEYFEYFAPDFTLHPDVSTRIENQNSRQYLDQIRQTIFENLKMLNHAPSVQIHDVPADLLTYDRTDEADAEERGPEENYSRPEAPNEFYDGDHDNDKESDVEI
human HDAC3/SMRT heterodimer, sequence (Q9Y618 1-899 partner): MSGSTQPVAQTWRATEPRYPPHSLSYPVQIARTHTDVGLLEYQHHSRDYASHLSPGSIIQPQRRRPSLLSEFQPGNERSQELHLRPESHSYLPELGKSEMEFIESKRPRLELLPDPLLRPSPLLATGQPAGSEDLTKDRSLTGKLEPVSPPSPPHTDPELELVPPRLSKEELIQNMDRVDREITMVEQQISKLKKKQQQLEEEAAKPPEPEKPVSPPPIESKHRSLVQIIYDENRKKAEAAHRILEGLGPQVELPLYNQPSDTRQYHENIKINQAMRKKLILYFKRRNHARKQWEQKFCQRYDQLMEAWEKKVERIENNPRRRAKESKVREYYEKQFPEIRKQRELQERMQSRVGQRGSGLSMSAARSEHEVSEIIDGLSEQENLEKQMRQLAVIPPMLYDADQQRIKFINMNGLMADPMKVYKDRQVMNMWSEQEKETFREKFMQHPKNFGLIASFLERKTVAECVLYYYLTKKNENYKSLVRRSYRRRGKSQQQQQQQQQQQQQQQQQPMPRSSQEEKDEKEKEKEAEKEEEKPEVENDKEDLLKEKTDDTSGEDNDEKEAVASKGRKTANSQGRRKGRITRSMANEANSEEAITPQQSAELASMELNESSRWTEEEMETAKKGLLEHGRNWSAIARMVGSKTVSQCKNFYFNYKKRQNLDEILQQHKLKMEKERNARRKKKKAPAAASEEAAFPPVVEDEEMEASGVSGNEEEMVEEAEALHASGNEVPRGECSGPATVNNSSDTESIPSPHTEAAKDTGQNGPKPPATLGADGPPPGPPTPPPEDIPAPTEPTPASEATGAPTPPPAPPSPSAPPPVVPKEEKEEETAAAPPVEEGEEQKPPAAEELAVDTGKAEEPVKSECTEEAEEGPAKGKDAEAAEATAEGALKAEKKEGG

[7] = read-out: Karn EC50 nM 0.1% NHS, 0.1% normal human serum, luciferase induction, 2 μM SAHA = 100%
[8] = read-out: Karn EC50 nM 5% NHS, 5% normal human serum, luciferase induction, 2 μM SAHA = 100%

Compound: CN1CCC(C(=O)N[C@@H](CCCCCC(=O)c2nccs2)c2nc(-c3ccc(F)cc3)c[nH]2)CC1 [Example 6, (S)-N-(1-(4-(4-fluorophenyl)-1H-imidazol-2-yl)-7-oxo-7-(thiazol-2-yl)heptyl)-1-methylpiperidine-4-carboxamide]
EC50 [1, 7]: 87 nM
EC50 [1, 8]: 160 nM
IC50 [2]: 55 nM
IC50 [3]: 2.9 nM
IC50 [4]: 45000 nM
IC50 [5]: 14 nM
IC50 [6]: 1.5 nM

Compound: N[C@@H](CCCCCC(=O)c1ncco1)c1nc(-c2ccc3nn(C4CC4)cc3c2)c[nH]1 [Example 14]
EC50 [1, 7]: 390 nM
EC50 [1, 8]: 270 nM
IC50 [2]: 3100 nM
IC50 [3]: 0.9 nM
IC50 [4]: 45000 nM
IC50 [5]: 4.5 nM
IC50 [6]: 1.1 nM

Compound: COc1nc2ccccc2cc1-c1c[nH]c([C@@H](N)CCCCCC(=O)c2ncco2)n1 [Example 15]
EC50 [1, 7]: 180 nM
EC50 [1, 8]: 670 nM
IC50 [2]: 720 nM
IC50 [3]: 5.2 nM
IC50 [4]: 40000 nM
IC50 [5]: 18 nM
IC50 [6]: 7.3 nM

Compound: CC(C)n1ccc2cc(-c3cnc([C@@H](N)CCCCCC(=O)c4ncco4)[nH]3)ccc2c1=O [Example 17]
EC50 [1, 7]: 650 nM
EC50 [1, 8]: 590 nM
IC50 [2]: 2900 nM
IC50 [3]: 2.1 nM
IC50 [4]: 45000 nM
IC50 [5]: 17 nM
IC50 [6]: 4.1 nM

Compound: N[C@@H](CCCCCC(=O)c1ncco1)c1ncc(-c2ccc3nc(N4CCCC4)ccc3c2)[nH]1 [Example 19]
EC50 [1, 7]: 210 nM
EC50 [1, 8]: 420 nM
IC50 [2]: 3600 nM
IC50 [3]: 2 nM
IC50 [4]: > 1500 nM
IC50 [5]: 9.4 nM
IC50 [6]: 1.5 nM

Compound: COc1cc2c(ccc(=O)n2C)cc1-c1cnc([C@@H](N)CCCCCC(=O)c2ncco2)[nH]1 [Example 21]
EC50 [1, 7]: 110 nM
EC50 [1, 8]: 110 nM
IC50 [2]: 490 nM
IC50 [3]: 1.9 nM
IC50 [4]: > 4500 nM
IC50 [5]: 8.4 nM
IC50 [6]: 1.5 nM

Compound: Cc1ccc2cc(-c3cnc([C@@H](N)CCCCCC(=O)c4ncco4)[nH]3)c(Cl)cc2n1 [Example 22]
EC50 [1, 7]: 130 nM
EC50 [1, 8]: 290 nM
IC50 [2]: 1500 nM
IC50 [3]: 10 nM
IC50 [4]: 45000 nM
IC50 [5]: 38 nM
IC50 [6]: 6.7 nM

Compound: CCn1cc(-c2ccc3nc(C)ccc3c2)nc1[C@@H](N)CCCCCC(=O)c1ncco1 [Example 30, (S)-7-amino-7-(1-ethyl-4-(2-methylquinolin-6-yl)-1H-imidazol-2-yl)-1-(oxazol-2-yl)heptan-1-one]
EC50 [1, 7]: 2500 nM
EC50 [1, 8]: 4000 nM
IC50 [2]: 21000 nM
IC50 [3]: 49 nM
IC50 [4]: 38800 nM
IC50 [5]: 230 nM
IC50 [6]: 48 nM

Compound: CN1CCC2(CC1)C[C@@H]2C(=O)N[C@@H](CCCCCC(=O)c1ccon1)c1nc(-c2ccccc2F)c[nH]1 [Example 39]
EC50 [1, 7]: 3 nM
EC50 [1, 8]: 4 nM
IC50 [2]: 2 nM
IC50 [3]: 0.1 nM
IC50 [4]: 45000 nM
IC50 [5]: 0.57 nM
IC50 [6]: 0.13 nM

Compound: COc1nc2ccccc2cc1-c1c[nH]c([C@H](CCCCCC(=O)c2ccon2)NC(=O)C2CCN(C)CC2)n1 [Example 40]
EC50 [1, 7]: 15 nM
EC50 [1, 8]: 58 nM
IC50 [2]: 3.3 nM
IC50 [3]: 1.5 nM
IC50 [4]: 2000 nM
IC50 [5]: 1.8 nM
IC50 [6]: 1.5 nM

Compound: COc1nc2ccccc2cc1-c1cnc([C@H](CCCCCC(=O)c2ncco2)NC(=O)CN(C)C)[nH]1 [Example 41]
EC50 [1, 7]: 16 nM
EC50 [1, 8]: 140 nM
IC50 [2]: 65 nM
IC50 [3]: 0.39 nM
IC50 [4]: 3300 nM
IC50 [5]: 2.6 nM
IC50 [6]: 0.71 nM

Compound: COc1nc2ccccc2cc1-c1cnc([C@H](CCCCCC(=O)c2ncco2)NC(=O)c2cncs2)[nH]1 [Example 42]
EC50 [1, 7]: 52 nM
EC50 [1, 8]: 340 nM
IC50 [2]: 27 nM
IC50 [3]: 1.7 nM
IC50 [4]: 13000 nM
IC50 [5]: 5.4 nM
IC50 [6]: 1.5 nM

Compound: Cc1ccc2cc(-c3c[nH]c([C@H](CCCCCC(=O)c4ccon4)NC(=O)[C@H]4CC45CCN(C)CC5)n3)ccc2n1 [Example 44]
EC50 [1, 7]: 9.5 nM
EC50 [1, 8]: 9.1 nM
IC50 [2]: 5.7 nM
IC50 [3]: 0.24 nM
IC50 [4]: 45000 nM
IC50 [5]: 0.97 nM
IC50 [6]: 0.26 nM

Compound: Cc1cc(C(=O)CCCCC[C@H](N)c2nc(-c3ccccc3F)c[nH]2)no1 [Example 45]
EC50 [1, 7]: 460 nM
EC50 [1, 8]: 1900 nM
IC50 [2]: 1200 nM
IC50 [3]: 8.9 nM
IC50 [4]: 45000 nM
IC50 [5]: 76 nM
IC50 [6]: 19 nM

Compound: CN(C)CC(=O)N[C@@H](CCCCCC(=O)c1ncco1)c1ncc(-c2ccc3c(ccc(=O)n3C)c2)[nH]1 [Example 46]
EC50 [1, 7]: 31 nM
EC50 [1, 8]: 44 nM
IC50 [2]: 91 nM
IC50 [3]: 1.7 nM
IC50 [4]: 45000 nM
IC50 [5]: 9.6 nM
IC50 [6]: 1.5 nM

Compound: CCN(CC)CC(=O)N[C@@H](CCCCCC(=O)c1ncco1)c1ncc(-c2cc3ccccc3nc2OC)[nH]1 [Example 50]
EC50 [1, 7]: 21 nM
EC50 [1, 8]: 140 nM
IC50 [2]: 47 nM
IC50 [3]: 0.99 nM
IC50 [4]: 1700 nM
IC50 [5]: 3.2 nM
IC50 [6]: 1.3 nM

Compound: COc1nc2ccccc2cc1-c1cnc([C@H](CCCCCC(=O)c2ncco2)NC(=O)CN2CCC2)[nH]1 [Example 51]
EC50 [1, 7]: 11 nM
EC50 [1, 8]: 56 nM
IC50 [2]: 31 nM
IC50 [3]: 0.38 nM
IC50 [4]: 690 nM
IC50 [5]: 2.3 nM
IC50 [6]: 0.66 nM

Compound: COc1nc2ccccc2cc1-c1cnc([C@H](CCCCCC(=O)c2ncco2)NC(=O)CN2CCCCC2)[nH]1 [Example 53]
EC50 [1, 7]: 26 nM
EC50 [1, 8]: 220 nM
IC50 [2]: 92 nM
IC50 [3]: 2.4 nM
IC50 [4]: 1100 nM
IC50 [5]: 4.9 nM
IC50 [6]: 1.6 nM

Compound: COc1cc2nc(C)ccc2cc1-c1cnc([C@H](CCCCCC(=O)c2cc(C)on2)NC(=O)CN(C)C)[nH]1 [Example 56]
EC50 [1, 7]: 6.4 nM
EC50 [1, 8]: 11 nM
IC50 [2]: 310 nM
IC50 [3]: 0.4 nM
IC50 [4]: 45000 nM
IC50 [5]: 1.8 nM
IC50 [6]: 0.37 nM

Compound: COc1cc2nc(C)ccc2cc1-c1cnc([C@H](CCCCCC(=O)c2cc(C)on2)NC(=O)C2CN(C)C2)[nH]1 [Example 57]
EC50 [1, 7]: 5.5 nM
EC50 [1, 8]: 13 nM
IC50 [2]: 150 nM
IC50 [3]: 0.23 nM
IC50 [4]: 45000 nM
IC50 [5]: 1 nM
IC50 [6]: 0.24 nM

Compound: COc1cc2nc(C)ccc2cc1-c1cnc([C@H](CCCCCC(=O)c2cc(C)on2)NC(=O)C2CC23CCN(C)CC3)[nH]1 (stereo partly shown) [Example 58]
EC50 [1, 7]: 6.8 nM
EC50 [1, 8]: 11 nM
IC50 [2]: 120 nM
IC50 [3]: 0.18 nM
IC50 [4]: 45000 nM
IC50 [5]: 0.9 nM
IC50 [6]: 0.18 nM

Compound: CN(C)C1(C(=O)N[C@@H](CCCCCC(=O)c2ccon2)c2ncc(-c3ccccc3F)[nH]2)CCC1 [Example 63]
EC50 [1, 7]: 11 nM
EC50 [1, 8]: 32 nM
IC50 [2]: 3.8 nM
IC50 [3]: 0.54 nM
IC50 [4]: > 900 nM
IC50 [5]: 2.1 nM
IC50 [6]: 0.46 nM

Compound: CN(C)C1(C(=O)N[C@@H](CCCCCC(=O)c2ccon2)c2ncc(-c3ccccc3F)[nH]2)CCCC1 [Example 64]
EC50 [1, 7]: 16 nM
EC50 [1, 8]: 28 nM
IC50 [2]: 3.5 nM
IC50 [3]: 0.58 nM
IC50 [4]: > 900 nM
IC50 [5]: 2.1 nM
IC50 [6]: 0.64 nM

Compound: CN[C@@H](CCCCCC(=O)c1ncco1)c1ncc(-c2ccc3nc(C)ccc3c2)[nH]1 [Example 75, (S)-7-(methylamino)-7-(5-(2-methylquinolin-6-yl)-1H-imidazol-2-yl)-1-(oxazol-2-yl)heptan-1-one]
EC50 [1, 7]: 300 nM
EC50 [1, 8]: 220 nM
IC50 [2]: 3400 nM
IC50 [3]: 2.4 nM
IC50 [4]: 26000 nM
IC50 [5]: 7 nM
IC50 [6]: 3.9 nM

Compound: COc1cc2nc(C)ccc2cc1-c1cnc([C@H](CCCCCC(=O)c2ncco2)NCc2ccccc2)[nH]1 [Example 82, (S)-7-(benzylamino)-7-(5-(7-methoxy-2-methylquinolin-6-yl)-1H-imidazol-2-yl)-1-(oxazol-2-yl)heptan-1-one]
EC50 [1, 7]: 180 nM
EC50 [1, 8]: 320 nM
IC50 [2]: 1800 nM
IC50 [3]: 3.1 nM
IC50 [4]: 1500 nM
IC50 [5]: 7.8 nM
IC50 [6]: 2.7 nM

Compound: COc1cc2nc(C)ccc2cc1-c1cnc([C@H](CCCCCC(=O)c2ccon2)NC(=O)CN(C)C)[nH]1 [Example 91]
EC50 [1, 7]: 17 nM
EC50 [1, 8]: 22 nM
IC50 [2]: 14 nM
IC50 [3]: 1.5 nM
IC50 [4]: 11000 nM
IC50 [5]: 1.9 nM
IC50 [6]: 1.5 nM

Compound: COc1cc2c(ccc(=O)n2C)cc1-c1cnc([C@H](CCCCCC(=O)c2ncco2)NC(=O)CN(C)C)[nH]1 [Example 92]
EC50 [1, 7]: 32 nM
EC50 [1, 8]: 64 nM
IC50 [2]: 57 nM
IC50 [3]: 0.92 nM
IC50 [4]: 4500 nM
IC50 [5]: 6.2 nM
IC50 [6]: 1.1 nM

IC50 [2]: > 900 nM
IC50 [3]: 110 nM
IC50 [4]: > 900 nM
IC50 [5]: 380 nM
IC50 [6]: 100 nM
Compound: N[C@@H](CCCCCC(=O)c1ncco1)c1ncc(-c2cccc(F)c2F)[nH]1 [Example 136, (7S)-7-amino-7-[5-(2,3-difluorophenyl)-1H-imidazol-2-yl]-1-(1,3-oxazol-2-yl)heptan-1-one]

IC50 [2]: > 900 nM
IC50 [3]: 61 nM
IC50 [4]: > 900 nM
IC50 [5]: 240 nM
IC50 [6]: 45 nM
Compound: N[C@@H](CCCCCC(=O)c1ncco1)c1ncc(-c2cc(C(F)(F)F)ccc2F)[nH]1 [Example 137, (7S)-7-amino-7-{5-[2-fluoro-5-(trifluoromethyl)phenyl]-1H-imidazol-2-yl}-1-(1,3-oxazol-2-yl)heptan-1-one]

Reference: patent US12331044B2, “Inhibitors of histone deacetylase useful for the treatment or prevention of HIV infection” (Merck Sharp & Dohme LLC, priority 2018, dated 2025)
